Data published in PubChem BioAssay (NCI).
Where “and” joins values, the source holds several entries; their conditions need not be identical. Equal entries are not always repeated.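 Step 1: Grow cells in 96-well plates. Step 2: Expose to compound for 48 hours at 5 concentrations. Step 3: Interpolate endpoints linearly; if unreached, use highest concentration. GI50: concentration for 50% inhibition of growth. At the TGI there is no net growth.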

How the values were obtained:
Assay in all cases: growth of human tumour cells (NCI), 48 h
[1] = tested on: RXF 393 renal
[2] = tested on: UACC-257 melanoma
[3] = tested on: EKVX NSCLC
[4] = tested on: M14 melanoma
[5] = tested on: A498 renal
[6] = tested on: UACC-62 melanoma
[7] = tested on: OVCAR-5 ovarian
[8] = tested on: HCC-2998 colon
[9] = tested on: A549 NSCLC
[10] = tested on: MCF7 breast

SMILES	TGI [1]	TGI [2]	TGI [3]	TGI [4]	TGI [5]	TGI [6]	TGI [7]	TGI [8]	TGI [9]	TGI [10]	GI50 [1]	GI50 [2]	GI50 [3]	GI50 [4]	GI50 [5]	GI50 [6]	GI50 [7]	GI50 [8]	GI50 [9]	GI50 [10]
CC1CCc2c(c(CC3CC(=O)NC(=O)C3)nn2-c2ccccc2)C1 (centres undefined)	> 100 µM	> 100 µM	> 100 µM	> 100 µM	> 100 µM	> 100 µM	> 100 µM	> 100 µM	> 100 µM	> 100 µM	–	–	–	–	–	–	–	–	–	–
O=C(NN1C(=O)CSC12CCCC2)C(O)c1ccccc1 (centres undefined)	> 100 µM	> 100 µM	> 100 µM	> 100 µM	> 100 µM	> 100 µM	> 100 µM	> 100 µM	> 100 µM	> 100 µM	> 100 µM	> 100 µM	> 100 µM	> 100 µM	> 100 µM	> 100 µM	> 100 µM	> 100 µM	> 100 µM	> 100 µM
COc1cc(/C=C\c2cc(/C=C\c3ccc(O)c(OC)c3)n(C(=O)CNc3ccc(Cl)cc3)n2)ccc1O	4.67 µM	17.7 µM	14.5 µM	15.5 µM	20 µM	9.2 µM	25.4 µM	18 µM	16.5 µM	11.9 µM	2.1 µM	5.17 µM	3.48 µM	2.89 µM	7.64 µM	2.73 µM	2.78 µM	6.01 µM	3.94 µM	2.34 µM
CC(C)(C)c1ccc(O)c(CN(Cc2cc(C(C)(C)C)ccc2O)C2CCCCC2)c1	30 µM	37.4 µM	> 63.7 µM	28.4 µM	31 µM	31.4 µM	34.1 µM	4.48 µM	> 56.7 µM	35.5 µM	–	–	–	–	–	–	–	–	–	–
CC(C)(C)NC/C(=C\c1ccccc1)C(=O)c1ccccc1	2.37 µM	6.91 µM	13.6 µM	4.2 µM	3.64 µM	4.91 µM	4.48 µM	3.35 µM	8.23 µM	10.4 µM	–	2.12 µM	3.29 µM	1.8 µM	1.8 µM	1.51 µM	2.33 µM	1.74 µM	2.75 µM	1.08 µM
C=C1NC(=O)C(CC(C(=O)C(=O)Nc2c(C)cccc2C(C)(C)C)C(=O)c2ccc3ccccc3c2)C(=O)N1 (centres undefined)	> 100 µM	> 100 µM	–	> 100 µM	> 100 µM	> 100 µM	> 100 µM	> 100 µM	> 100 µM	> 100 µM	–	–	–	–	–	–	–	–	–	–
COc1ccc(/C=C\c2cc(OC)c(OC)c(OC)c2)c(O)c1O	36 µM and 6.31 µM	28.7 µM and 52.3 µM	70.1 µM and 96.1 µM	9.95 µM	–	17 µM and 6.88 µM	51.8 µM and 96.4 µM	2.47 µM and 3.06 µM	> 70.1 µM and 88.7 µM	–	< 0.0322 µM and 0.111 µM	0.142 µM	3.76 µM	–	0.247 µM and 0.05 µM	0.238 µM	43.7 µM	–	0.0754 µM	0.05 µM
COc1cc(-c2ccc(NC(=O)NC3CC3)c(OC)c2)ccc1NC(=O)NC1CC1	4.42 µM	> 100 µM	> 100 µM	> 100 µM	> 100 µM	> 100 µM	> 100 µM	> 100 µM	> 100 µM	> 100 µM	1.16 µM	12.4 µM	> 100 µM	> 100 µM	19.2 µM	5.71 µM	> 100 µM	28 µM	3.89 µM	5.69 µM
CCOC(=O)c1csc(NC(=O)COc2cccc(/C=C3\CSc4ccccc4C3=O)c2)n1	11.2 µM	16.7 µM	19.9 µM	4.18 µM	24.5 µM	7.02 µM	5.42 µM	0.382 µM	18.5 µM	7.25 µM	2.86 µM	5.72 µM	2.29 µM	1.86 µM	12.1 µM	2.61 µM	1.04 µM	0.0447 µM	2.41 µM	1.13 µM
CCOc1c(C#N)c2c(N)ncnc2n1C1OC(CO)C(O)C1O (centres undefined)	6.64 µM	> 77.3 µM	> 100 µM	5.57 µM	49.2 µM	10 µM	> 100 µM	28.2 µM	> 100 µM	> 100 µM	2.27 µM	13.7 µM	4.74 µM	1.92 µM	4.23 µM	2.76 µM	7.02 µM	3.92 µM	2.27 µM	2.45 µM
O=C(Nc1nc(-c2ccc(Cl)cc2)nc2c1sc(=S)n2-c1ccccc1)C(F)(F)F	5.01 µM	60 µM	31.8 µM	> 100 µM	7.8 µM	15 µM	26.6 µM	> 100 µM	18 µM	> 100 µM	2.36 µM	10.7 µM	3.83 µM	7.61 µM	1.77 µM	3.55 µM	6.23 µM	10.3 µM	3.88 µM	10.2 µM
NNC(=S)Nc1cccc(Cl)c1	> 100 µM	> 100 µM	> 100 µM	> 100 µM	> 100 µM	> 100 µM	> 100 µM	> 100 µM	> 100 µM	> 100 µM	–	–	–	–	–	–	–	–	–	–
CC(C)CCC(=O)[C@@H](C)[C@H]1[C@@H](OC2OCC(O)C(O)C2NS(C)(=O)=O)C[C@H]2[C@@H]3CC=C4C[C@@H](O)CC[C@]4(C)[C@H]3CC[C@]12C (some centres undefined)	0.783 µM	2.31 µM	8.85 µM	1.58 µM	1.7 µM	1.95 µM	16.8 µM	11.7 µM	11.5 µM	5.73 µM	0.178 µM	0.922 µM	1.46 µM	0.512 µM	0.724 µM	0.79 µM	4.89 µM	5.04 µM	3.55 µM	1.26 µM
O=S(=O)(Nc1ccc2ccccc2c1)c1ccc(-c2cnc(C3CC3)o2)cc1	3.92 µM	31.5 µM	59.9 µM	14.9 µM	5.28 µM	14.5 µM	23.4 µM	6.06 µM	> 100 µM	25 µM	0.573 µM	10.4 µM	2.76 µM	0.701 µM	0.462 µM	0.914 µM	3.01 µM	1.48 µM	1.74 µM	0.478 µM
